Measured values from publication PMC5563523, “Discovery of a ROCK inhibitor, FPND, which prevents cerebral hemorrhage through maintaining vascular integrity by interference with VE-cadherin” (Cell Death Discovery, 2017).

Biological target: ROCK1 (Homo sapiens, UniProt Q13464)
Experiment: Z'-LYTE kinase assay with ROCK1 enzyme, peptide substrate and […] ATP
Format: biochemical

ROCK1, sequence (Q13464 2-1354): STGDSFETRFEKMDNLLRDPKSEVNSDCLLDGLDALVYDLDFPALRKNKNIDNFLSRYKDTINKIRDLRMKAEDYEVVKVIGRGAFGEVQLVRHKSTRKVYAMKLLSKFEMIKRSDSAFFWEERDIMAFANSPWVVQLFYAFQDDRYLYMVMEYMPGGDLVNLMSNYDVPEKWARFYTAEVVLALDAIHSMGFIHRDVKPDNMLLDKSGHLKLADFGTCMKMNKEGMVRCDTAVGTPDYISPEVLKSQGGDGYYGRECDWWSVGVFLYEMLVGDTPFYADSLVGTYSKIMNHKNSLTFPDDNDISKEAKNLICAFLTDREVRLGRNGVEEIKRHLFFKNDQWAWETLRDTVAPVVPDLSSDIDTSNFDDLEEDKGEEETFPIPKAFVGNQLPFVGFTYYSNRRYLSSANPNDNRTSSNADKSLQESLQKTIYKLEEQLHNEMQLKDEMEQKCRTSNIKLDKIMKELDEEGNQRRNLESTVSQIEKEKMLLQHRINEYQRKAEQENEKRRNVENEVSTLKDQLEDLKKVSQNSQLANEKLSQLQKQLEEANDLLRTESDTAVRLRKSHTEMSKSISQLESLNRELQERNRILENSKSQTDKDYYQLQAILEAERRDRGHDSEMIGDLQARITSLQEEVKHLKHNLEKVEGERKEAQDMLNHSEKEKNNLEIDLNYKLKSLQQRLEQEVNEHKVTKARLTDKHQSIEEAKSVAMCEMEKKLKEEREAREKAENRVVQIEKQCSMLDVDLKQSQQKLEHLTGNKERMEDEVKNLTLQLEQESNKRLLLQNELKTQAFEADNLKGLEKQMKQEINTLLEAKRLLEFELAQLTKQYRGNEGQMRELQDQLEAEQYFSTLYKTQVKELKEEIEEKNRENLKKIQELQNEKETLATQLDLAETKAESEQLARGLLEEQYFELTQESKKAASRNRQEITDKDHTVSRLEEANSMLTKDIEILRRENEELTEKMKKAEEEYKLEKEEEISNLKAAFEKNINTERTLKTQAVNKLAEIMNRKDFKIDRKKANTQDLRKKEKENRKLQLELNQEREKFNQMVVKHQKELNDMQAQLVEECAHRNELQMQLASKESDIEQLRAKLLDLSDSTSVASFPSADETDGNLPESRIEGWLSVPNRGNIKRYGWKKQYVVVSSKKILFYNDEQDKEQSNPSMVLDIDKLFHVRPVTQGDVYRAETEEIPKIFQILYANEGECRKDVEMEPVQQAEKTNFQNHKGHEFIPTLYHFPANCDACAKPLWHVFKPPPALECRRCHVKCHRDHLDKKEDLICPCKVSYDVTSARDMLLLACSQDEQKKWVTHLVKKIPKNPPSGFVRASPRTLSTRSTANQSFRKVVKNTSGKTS

Structure (SMILES): Nc1nc(CN2CCN(c3ccccc3F)CC2)nc(Nc2cccc3ccccc23)n1 [FPND, 6-[4-(2-fluorophenyl)-1-piperazinyl]methyl-N-1-naphthyl-1,3,5-triazine-2,4-diamine]
- IC50: 11.2 ± 2.2 µM
